In patent US20250282794A1 (CURADEV PHARMA LTD, priority 2022, published 2025) one finds IC50 data, which are given here for 18 compounds.

Usually IC50 stands for the concentration needed to halve the response being measured.

The target of the assay is recombinant full length HPK-1 enzyme (Homo sapiens (Human), UniProt Q92918). Description: HPK-1 biochemical enzyme assay (ADP-Glo kinase inhibition). Particulars: recombinant full length HPK-1 6.8 nM, 10 μM ATP, 12.5 μM MBP, 30 mins at 25° C. As to the method: HPK-1 biochemical enzyme assay
Sequence of recombinant full length HPK-1 enzyme (Q92918 whole entry, species assumed): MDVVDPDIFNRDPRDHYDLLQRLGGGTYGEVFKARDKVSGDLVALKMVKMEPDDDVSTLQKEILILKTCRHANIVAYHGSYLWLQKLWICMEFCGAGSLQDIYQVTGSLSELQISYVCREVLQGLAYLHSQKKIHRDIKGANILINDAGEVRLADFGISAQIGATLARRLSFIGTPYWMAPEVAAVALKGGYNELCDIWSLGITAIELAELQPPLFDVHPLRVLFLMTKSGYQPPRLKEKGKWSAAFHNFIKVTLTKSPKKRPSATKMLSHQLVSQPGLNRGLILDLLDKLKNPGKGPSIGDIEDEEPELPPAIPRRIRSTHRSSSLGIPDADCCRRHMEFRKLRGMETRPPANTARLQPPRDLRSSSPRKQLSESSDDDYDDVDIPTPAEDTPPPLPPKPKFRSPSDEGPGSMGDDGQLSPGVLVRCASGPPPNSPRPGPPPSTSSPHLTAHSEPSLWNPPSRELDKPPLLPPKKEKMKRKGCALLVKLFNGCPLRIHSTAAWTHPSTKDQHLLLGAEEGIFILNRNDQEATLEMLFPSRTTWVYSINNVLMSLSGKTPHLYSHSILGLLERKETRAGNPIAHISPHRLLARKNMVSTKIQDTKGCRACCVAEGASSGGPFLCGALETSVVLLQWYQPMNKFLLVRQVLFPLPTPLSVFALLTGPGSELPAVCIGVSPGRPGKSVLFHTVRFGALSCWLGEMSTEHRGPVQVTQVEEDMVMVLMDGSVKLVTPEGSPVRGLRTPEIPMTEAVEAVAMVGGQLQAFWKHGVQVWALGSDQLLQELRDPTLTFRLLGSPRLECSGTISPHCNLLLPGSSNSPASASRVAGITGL
Compound inhibitory potency was measured in an HPK-1 kinase inhibition assay. Briefly, recombinant full length HPK-1 enzyme (6.8 nM) was incubated with 10 μM ATP and 12.5 μM swine myelin basic protein (MBP) for 30 mins. at 25° C. in the presence of various concentrations of test compound or vehicle in 40 mM Tris.Cl pH7.4 buffer containing 20 mM MgCl2, 50 μM DTT and 0.1 mg/mL BSA. Reactions were quenched and reaction mixtures were then analyzed by an ADP-Glo kit which measures the formed ADP. The percent inhibition was calculated from the substrate conversion considering no enzyme control reactions for 100% inhibition and vehicle only reactions for 0% inhibition. The compounds were dissolved in DMSO and evaluated at 10 concentrations to determine an IC50 value.
In the below table A denotes an HPK-1 IC50≤10 nM, B denotes an HPK-1 IC50>10 nM but≤100 nM and C denotes an HPK-1 IC50>100 nM but≤1000 nM.
A general note: ADP-Glo first removes unused ATP, then detects ADP through luciferase.

SMILES strings stand for the structures.

For the compound `Cc1c(Nc2cc[nH]c(=O)c2C(=O)Nc2ccc(N3CCN(CCCO)CC3)cc2)cnc2c1NCCO2` [Example 175, N-(4-(4-(3-hydroxypropyl)piperazin-1-yl)phenyl)-4-((8-methyl-2,3-dihydro-1H-pyrido[2,3-b][1,4]oxazin-7-yl)amino)-2-oxo-1,2-dihydropyridine-3-carboxamide], the IC50 is not above 10 nM. Turning to `Cc1c(Nc2cc[nH]c(=O)c2C(=O)Nc2ccc(N3CCN(CC4CCC(=O)N4)CC3)cc2)cnc2c1NCCO2` (stereo not drawn) [Example 176, 4-((8-methyl-2,3-dihydro-1H-pyrido[2,3-b][1,4]oxazin-7-yl)amino)-2-oxo-N-(4-(4-((5-oxopyrrolidin-2-yl)methyl)piperazin-1-yl)phenyl)-1,2-dihydropyridine-3-carboxamide], the IC50 is not above 10 nM. Take `Cc1c(Nc2cc[nH]c(=O)c2C(=O)Nc2ccc(N3CCN(C(C)C)CC3)cc2)cnc2c1NCC(C)(C)O2` [Example 177, N-(4-(4-isopropylpiperazin-1-yl)phenyl)-2-oxo-4-((3,3,8-trimethyl-2,3-dihydro-1H-pyrido[2,3-b][1,4]oxazin-7-yl)amino)-1,2-dihydropyridine-3-carboxamide]: the IC50 is not above 10 nM.

Turning to `Cc1c(Nc2cc[nH]c(=O)c2C(=O)Nc2ccc(N3CCN(CCC#N)CC3)cc2)cnc2c1NCCO2` [Example 178, N-(4-(4-(2-cyanoethyl)piperazin-1-yl)phenyl)-4-((8-methyl-2,3-dihydro-1H-pyrido[2,3-b][1,4]oxazin-7-yl)amino)-2-oxo-1,2-dihydropyridine-3-carboxamide], the IC50 is not above 10 nM. The value for `Cc1c(Nc2cc[nH]c(=O)c2C(=O)Nc2ccc(N3CCN(C4CCC4)CC3)cc2)cnc2c1NCCO2` [Example 179, N-(4-(4-cyclobutylpiperazin-1-yl)phenyl)-4-((8-methyl-2,3-dihydro-1H-pyrido[2,3-b][1,4]oxazin-7-yl)amino)-2-oxo-1,2-dihydropyridine-3-carboxamide] was not above 10 nM; that for `Cc1c(Nc2cc[nH]c(=O)c2C(=O)Nc2ccc3c(c2)CN(C)C(=O)C3)cnc2c1NCCO2` [Example 180, 4-((8-methyl-2,3-dihydro-1H-pyrido[2,3-b][1,4]oxazin-7-yl)amino)-N-(2-methyl-3-oxo-1,2,3,4-tetrahydroisoquinolin-7-yl)-2-oxo-1,2-dihydropyridine-3-carboxamide] was 10 to 100 nM; that for `Cc1c(Nc2cc[nH]c(=O)c2C(=O)Nc2ccc(N3CC4CCC(C3)N4C)cc2)cnc2c1NCC(C)O2` (stereo not drawn) [Example 181, 4-((3,8-dimethyl-2,3-dihydro-1H-pyrido[2,3-b][1,4]oxazin-7-yl)amino)-N-(4-(8-methyl-3,8-diazabicyclo[3.2.1]octan-3-yl)phenyl)-2-oxo-1,2-dihydropyridine-3-carboxamide] was 10 to 100 nM. The value for `Cc1c(Nc2cc[nH]c(=O)c2C(=O)Nc2ccc(N3CCN(C(=O)N(C)C)CC3)cc2)cnc2c1NCC(C)O2` (stereo not drawn) [Example 182, 4-(4-(4-((3,8-dimethyl-2,3-dihydro-1H-pyrido[2,3-b][1,4]oxazin-7-yl)amino)-2-oxo-1,2-dihydropyridine-3-carboxamido)phenyl)-N,N-dimethylpiperazine-1-carboxamide] was not above 10 nM; that for `Cc1c(Nc2cc[nH]c(=O)c2C(=O)Nc2ccc(N3CCN(C(C)C)CC3)c(F)c2)cnc2c1NCC(C)O2` (stereo not drawn) [Example 183, 4-((3,8-dimethyl-2,3-dihydro-1H-pyrido[2,3-b][1,4]oxazin-7-yl)amino)-N-(3-fluoro-4-(4-isopropylpiperazin-1-yl)phenyl)-2-oxo-1,2-dihydropyridine-3-carboxamide] was not above 10 nM; that for `Cc1c(Nc2cc[nH]c(=O)c2C(=O)Nc2ccc(C3CC(=O)N(C)C3)cc2)cnc2c1NCCO2` (stereo not drawn) [Example 184, 4-((8-methyl-2,3-dihydro-1H-pyrido[2,3-b][1,4]oxazin-7-yl)amino)-N-(4-(1-methyl-5-oxopyrrolidin-3-yl)phenyl)-2-oxo-1,2-dihydropyridine-3-carboxamide] was not above 10 nM.

Consider `COCCN1CCN(c2ccc(NC(=O)c3c(Nc4cnc5c(c4C)NCC(C)O5)cc[nH]c3=O)cc2F)CC1` (stereo not drawn) [Example 185, 4-((3,8-dimethyl-2,3-dihydro-1H-pyrido[2,3-b][1,4]oxazin-7-yl)amino)-N-(3-fluoro-4-(4-(2-methoxyethyl)piperazin-1-yl)phenyl)-2-oxo-1,2-dihydropyridine-3-carboxamide], for which the IC50 was not above 10 nM.

As for `Cc1c(Nc2cc[nH]c(=O)c2C(=O)Nc2ccc(N3CCN(CCO)CC3)c(F)c2)cnc2c1NCC(C)O2` (stereo not drawn) [Example 186, 4-((3,8-dimethyl-2,3-dihydro-1H-pyrido[2,3-b][1,4]oxazin-7-yl)amino)-N-(3-fluoro-4-(4-(2-hydroxyethyl)piperazin-1-yl)phenyl)-2-oxo-1,2-dihydropyridine-3-carboxamide], the IC50 is not above 10 nM. The value for `Cc1c(Nc2cc[nH]c(=O)c2C(=O)Nc2ccc(N3CCN(C4CCCC4)CC3)cc2)cnc2c1NCC(C)O2` (stereo not drawn) [Example 187, N-(4-(4-cyclopentylpiperazin-1-yl)phenyl)-4-((3,8-dimethyl-2,3-dihydro-1H-pyrido[2,3-b][1,4]oxazin-7-yl)amino)-2-oxo-1,2-dihydropyridine-3-carboxamide] was not above 10 nM; that for `CCC1CNc2c(ncc(Nc3cc[nH]c(=O)c3C(=O)Nc3ccc(N4CCN(C)CC4)cc3)c2C)O1` (stereo not drawn) [Example 188, 4-((3-ethyl-8-methyl-2,3-dihydro-1H-pyrido[2,3-b][1,4]oxazin-7-yl)amino)-N-(4-(4-methylpiperazin-1-yl)phenyl)-2-oxo-1,2-dihydropyridine-3-carboxamide] was 10 to 100 nM. For `Cc1c(Nc2cc[nH]c(=O)c2C(=O)Nc2ccc(N3CCN(C)CC3)cc2)cnc2c1NCC(C(C)C)O2` (stereo not drawn) [Example 189, 4-((3-isopropyl-8-methyl-2,3-dihydro-1H-pyrido[2,3-b][1,4]oxazin-7-yl)amino)-N-(4-(4-methylpiperazin-1-yl)phenyl)-2-oxo-1,2-dihydropyridine-3-carboxamide] the value was 10 to 100 nM; for `Cc1c(Nc2cc[nH]c(=O)c2C(=O)Nc2ccc(N3CCN(C)CC3)cc2)cnc2c1NCC1(CC1)O2` [Example 190, 4-((8′-methyl-1′,2′-dihydrospiro[cyclopropane-1,3′-pyrido[2,3-b][1,4]oxazin]-7′-yl)amino)-N-(4-(4-methylpiperazin-1-yl)phenyl)-2-oxo-1,2-dihydropyridine-3-carboxamide], 10 to 100 nM. The value for `Cc1c(Nc2cc[nH]c(=O)c2C(=O)Nc2ccc(N3CCN(C)CC3)c(C#N)c2)cnc2c1NCC(C)O2` (stereo not drawn) [Example 191, N-(3-cyano-4-(4-methylpiperazin-1-yl)phenyl)-4-((3,8-dimethyl-2,3-dihydro-1H-pyrido[2,3-b][1,4]oxazin-7-yl)amino)-2-oxo-1,2-dihydropyridine-3-carboxamide] was 10 to 100 nM. For `Cc1c(Nc2cc[nH]c(=O)c2C(=O)Nc2cnn(C3CCN(C)CC3)c2)cnc2c1NCC(C)O2` (stereo not drawn) [Example 192, 4-((3,8-dimethyl-2,3-dihydro-1H-pyrido[2,3-b][1,4]oxazin-7-yl)amino)-N-(1-(1-methylpiperidin-4-yl)-1H-pyrazol-4-yl)-2-oxo-1,2-dihydropyridine-3-carboxamide], the half-inhibitory concentration (IC50) was 10 to 100 nM.
